pIC50: −log10 of the molar value.
Test system: 292921-168-R-J2-PDC KRAS tumor spheroid viability
Assay: Anticancer human tumor 292921-168-R-J2-PDC patient-derived pancreatic carcinoma cell line growth inhibition [KRAS2]
Conditions: spheroids with HUVEC and MSC; for pIC50: curve of first compound; for viability, T/C: stronger effect = lower value
Method in brief: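 Combination screen of spheroid viability in tumor-cell co-cultures with endothelial (HUVEC) and mesenchymal stem cell stroma. Each agent was tested in half-log dilutions, topping at clinical Cmax or at 10 microM without a known Cmax.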

[1] = second compound 0.0316 µM, first compound 0.0316 µM
[2] = second compound 0.0316 µM, first compound 0.1 µM
[3] = second compound 0.0316 µM, first compound 0.316 µM
[4] = second compound 0.0316 µM, first compound 1 µM
[5] = second compound 0.0316 µM, first compound 3.16 µM
[6] = second compound 0.0316 µM, first compound 10 µM
[7] = second compound 0.1 µM, first compound 0.0316 µM
[8] = second compound 0.1 µM, first compound 0.1 µM
[9] = second compound 0.1 µM, first compound 0.316 µM
[10] = second compound 0.1 µM, first compound 1 µM
[11] = second compound 0.1 µM, first compound 3.16 µM
[12] = second compound 0.1 µM, first compound 10 µM
[13] = second compound 0.316 µM, first compound 0.0316 µM
[14] = second compound 0.316 µM, first compound 0.1 µM
[15] = second compound 0.316 µM, first compound 0.316 µM
[16] = second compound 0.316 µM, first compound 1 µM
[17] = second compound 0.316 µM, first compound 3.16 µM
[18] = second compound 0.316 µM, first compound 10 µM
[19] = second compound 1 µM, first compound 0.0316 µM
[20] = second compound 1 µM, first compound 0.1 µM
[21] = second compound 1 µM, first compound 0.316 µM
[22] = second compound 1 µM, first compound 1 µM
[23] = second compound 1 µM, first compound 3.16 µM
[24] = second compound 1 µM, first compound 10 µM
[25] = second compound 3.16 µM, first compound 0.0316 µM
[26] = second compound 3.16 µM, first compound 0.1 µM
[27] = second compound 3.16 µM, first compound 0.316 µM
[28] = second compound 3.16 µM, first compound 1 µM
[29] = second compound 3.16 µM, first compound 3.16 µM
[30] = second compound 3.16 µM, first compound 10 µM
[31] = second compound 0.0316 µM, first compound 0.01 µM
[32] = second compound 0.1 µM, first compound 0.01 µM
[33] = second compound 0.316 µM, first compound 0.01 µM
[34] = second compound 1 µM, first compound 0.01 µM
[35] = second compound 3.16 µM, first compound 0.01 µM
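Note: drug exposure lasted seven days after spheroids formed for three days.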
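Throughout, for viability, T/C: percent of DMSO vehicle control viability which is 100%.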

Compound	pIC50 (second compound 0.0316 µM)	pIC50 (second compound 0.1 µM)	pIC50 (second compound 0.316 µM)	pIC50 (second compound 1 µM)	pIC50 (second compound 3.16 µM)	viability, T/C [1] [%]	viability, T/C [2] [%]	viability, T/C [3] [%]	viability, T/C [4] [%]	viability, T/C [5] [%]	viability, T/C [7] [%]	viability, T/C [8] [%]	viability, T/C [9] [%]	viability, T/C [10] [%]	viability, T/C [13] [%]	viability, T/C [14] [%]	viability, T/C [19] [%]	viability, T/C [20] [%]	viability, T/C [25] [%]	viability, T/C [26] [%]	also measured
CC(C)NCC(C(=O)N1CCN(c2ncnc3c2C(C)CC3O)CC1)c1ccc(Cl)cc1 (stereo not given) + C=CC(=O)N1CCN(c2nc(OCC3CCCN3C)nc3c2CCN(c2cccc4cccc(C)c24)C3)CC1CC#N	< 5.00	< 5.00	5.22	> 7.50	> 7.50	88	84.6	84.5	82	73.9	85.2	78.6	85.3	79.3	71.5	68.5	36.7	28.8	0.1	0.09	viability, T/C [6]: 54.7%; viability, T/C [11]: 74.4%; viability, T/C [12]: 51.8%; viability, T/C [15]: 65.1%; viability, T/C [16]: 69.2%; viability, T/C [17]: 59%; viability, T/C [18]: 42.3%; viability, T/C [21]: 28.9%; viability, T/C [22]: 32.1%; viability, T/C [23]: 28.1%; viability, T/C [24]: 21%; viability, T/C [27]: 0.09%; viability, T/C [28]: 0.1%; viability, T/C [29]: 0.11%; viability, T/C [30]: 0.21%
CC1(C)CCC(CN2CCN(c3ccc(C(=O)NS(=O)(=O)c4ccc(NCC5CCOCC5)c([N+](=O)[O-])c4)c(Oc4cnc5[nH]ccc5c4)c3)CC2)=C(c2ccc(Cl)cc2)C1 + C=CC(=O)N1CCN(c2nc(OCC3CCCN3C)nc3c2CCN(c2cccc4cccc(C)c24)C3)CC1CC#N	5.69	5.68	5.74	6.37	> 7.50	99.8	101	96.1	92.5	23.8	98.1	103	100	96.1	88.2	98.4	58	59.7	0.13	0.2	viability, T/C [6]: 4.26%; viability, T/C [11]: 24.7%; viability, T/C [12]: 4.98%; viability, T/C [15]: 83.2%; viability, T/C [16]: 90.2%; viability, T/C [17]: 12.6%; viability, T/C [18]: 4.29%; viability, T/C [21]: 52%; viability, T/C [22]: 35.3%; viability, T/C [23]: 2.72%; viability, T/C [24]: 2.98%; viability, T/C [27]: 0.14%; viability, T/C [28]: 0.12%; viability, T/C [29]: 0.37%; viability, T/C [30]: 0.26%
CC1COCCN1c1cc(-c2ccnn2C)c2ccnc(-c3ccn[nH]3)c2n1 (stereo not given) + C=CC(=O)N1CCN(c2nc(OCC3CCCN3C)nc3c2CCN(c2cccc4cccc(C)c24)C3)CC1CC#N	> 8.00	> 8.00	> 8.00	> 8.00	> 8.00	16.4	11.5	10	11.9	12.6	14	9.02	9.07	11	11	7.47	6.29	5.9	0.09	0.08	viability, T/C [31]: 38.6%; viability, T/C [32]: 33.6%; viability, T/C [11]: 11.7%; viability, T/C [33]: 22.6%; viability, T/C [15]: 8.07%; viability, T/C [16]: 9.3%; viability, T/C [17]: 10.8%; viability, T/C [34]: 8.66%; viability, T/C [21]: 6.42%; viability, T/C [22]: 6.98%; viability, T/C [23]: 7.65%; viability, T/C [35]: 0.1%; viability, T/C [27]: 0.09%; viability, T/C [28]: 0.27%; viability, T/C [29]: 0.15%
CCNC(=O)CC1N=C(c2ccc(Cl)cc2)c2cc(OC)ccc2-n2c(C)nnc21 (stereo not given) + C=CC(=O)N1CCN(c2nc(OCC3CCCN3C)nc3c2CCN(c2cccc4cccc(C)c24)C3)CC1CC#N	< 5.00	5.91	6.19	> 7.50	> 7.50	104	99.5	69.9	63.6	53.9	94	90.2	59.1	53.7	106	92.2	42.4	33	0.21	0.11	viability, T/C [6]: 49.2%; viability, T/C [11]: 48%; viability, T/C [12]: 34.3%; viability, T/C [15]: 59.2%; viability, T/C [16]: 45.1%; viability, T/C [17]: 34.2%; viability, T/C [18]: 29.2%; viability, T/C [21]: 26.1%; viability, T/C [22]: 18.4%; viability, T/C [23]: 13.7%; viability, T/C [24]: 8.19%; viability, T/C [27]: 0.1%; viability, T/C [28]: 0.1%; viability, T/C [29]: 0.1%; viability, T/C [30]: 0.26%
Cn1ncnc1[C@H]1c2n[nH]c(=O)c3cc(F)cc(c23)N[C@@H]1c1ccc(F)cc1 + C=CC(=O)N1CCN(c2nc(OCC3CCCN3C)nc3c2CCN(c2cccc4cccc(C)c24)C3)CC1CC#N	< 7.00	< 7.00	7.09	> 9.50	> 9.50	81.7	67.3	–	–	–	77.6	63.7	–	–	65	46.4	29.8	28.3	0.13	0.17	viability, T/C (second compound 0.0316 µM, first compound 0.000316 µM): 99.5%; viability, T/C (second compound 0.0316 µM, first compound 0.001 µM): 93%; viability, T/C (second compound 0.0316 µM, first compound 0.00316 µM): 93.2%; viability, T/C [31]: 93.6%; viability, T/C (second compound 0.1 µM, first compound 0.000316 µM): 96.7%; viability, T/C (second compound 0.1 µM, first compound 0.001 µM): 93.5%; viability, T/C (second compound 0.1 µM, first compound 0.00316 µM): 91.7%; viability, T/C [32]: 83.6%; viability, T/C (second compound 0.316 µM, first compound 0.000316 µM): 88.1%; viability, T/C (second compound 0.316 µM, first compound 0.001 µM): 82.1%; viability, T/C (second compound 0.316 µM, first compound 0.00316 µM): 72.9%; viability, T/C [33]: 74.9%; viability, T/C (second compound 1 µM, first compound 0.000316 µM): 42.1%; viability, T/C (second compound 1 µM, first compound 0.001 µM): 42.9%; viability, T/C (second compound 1 µM, first compound 0.00316 µM): 37.1%; viability, T/C [34]: 32.5%; viability, T/C (second compound 3.16 µM, first compound 0.000316 µM): 0.3%; viability, T/C (second compound 3.16 µM, first compound 0.001 µM): 0.12%; viability, T/C (second compound 3.16 µM, first compound 0.00316 µM): 0.12%; viability, T/C [35]: 0.11%

— PubChem BioAssay AID1963870 (Molecular Pharmacology Branch, DTP, NCI, 2024)
